Experimental data reported in patent US20120220554A1, “Combretastatins for Prevention of Posterior Capsule Opacification” (OXIGENE, INC., priority 2010, published 2012).

Tests used:
ERK 1/2 (p42 and p44) = test: Erk 1/2 phosphorylation immunoblot in primary lens epithelial cells; assay type: cell-based, bovine; details: primary cells after dissection; 30 min 1 mM CA4P; immediately and 1 h after end of exposure (FIG. 7)
Text: Bovine eyes were obtained from Coast and County Meat Group (Felling, UK) on the day of culling and lenses were dissected out of the eyes under a sterile tissue culture hood as described below. After generous dousing in 70% ethanol, eyes were cut open using a major surgical blade (Swann-Morton, UK) via a single cut, parallel and posterior to the cornea-conjunctiva limit. The eye was then inverted and the vitreous removed. The lens was freed from the ciliary fibers and immediately placed anterior face down in a SYLGARD-covered (Dow Corning, Germany) well of a 12-well tissue culture plate (Greiner Bio-One, UK). The posterior side of the lens capsule was cut in a Y-shape fashion by a thin scalpel and the resulting flaps pulled back and pinned onto the SYLGARD. […]
Immediately after dissection, primary lens epithelial cells were exposed for 30 min to 1 mM CA4P diluted in 0% FCS medium, after which they were returned to 0% FCS-supplemented medium. […] After total protein quantification of the extracts by Bicinchoninic Acid (BCA) assay (ThermoScientific, UK), 20 μg of extract were loaded per lane of a 12% acrylamide denaturing gel, which was run at 200V for 40 min, followed by blotting onto a nitrocellulose membrane at 0.8 mA/cm^2 for 2 h and blocking in either milk (Erk 1/2) or BSA (GAPDH) in TTBS (0.2% Tween (vol/vol), 150 mM NaCl, 20 mM Tris.HCl pH 7.4) for 1 h at room temperature. […]

phospho-Erk in BIE cells = test: Erk phosphorylation immunoblot in BIE cells; assay type: cell-based, bovine
Protocol: Phospho-Erk ½ levels were elevated immediately after the end of CA4P exposure in both control and treated cells and decreased 1 h after the end of CA4P exposure in both control and treated cells (FIG. 7). […] Therefore, it could be hypothesized that, in primary cells, a general stress response due to dissection will mask CA4P's effect on Erk phosphorylation. Phosphorylated p38 and JNK levels were not affected by CA4P treatment (data not shown).

[1] = system: Primary bovine lens epithelial cells; test: Primary bovine lens epithelial cells on the lens capsule, serum-free, continuous exposure: cell number and morphology; assay type: cell-based
Protocol: Primary bovine lens epithelial cells were cultured in serum-free conditions, survival factors being released from the lens capsule. Paclitaxel or combretastatin A-4 phosphate was added to the culture to a final concentration of 10 nM, 100 nM or 10 μM. Cell number was determined for each capsule at 48 h and 96 h after addition of the test agent. Two capsules were taken per treatment and cell numbers averaged after being expressed as a percentage of 48 h value. This indicates the increase/decrease in cell number within a 48 h time period (i.e. from 48 h to 96 h), normalized as a percentage. Independent T-test P value between CA4P control and 10 μM is 0.0002.
By light microscopy, CA4P has a dramatic effect upon cell morphology, retaining the cobblestone characteristic of the lens epithelium, when in the control cultures the lens cells have begun to trans-differentiate actinsm/desmin positive cells and migrate off the capsule. Pictures were taken from live primary bovine cells on the lens capsule with FujiFinepix (FIG. 3).

COc1ccc(/C=C\c2cc(OC)c(OC)c(OC)c2)cc1OP(=O)(O)O [CA4P, combretastatin A-4 phosphate]
Erk phosphorylation (ERK 1/2 (p42 and p44)): not affected | phospho-Erk levels (phospho-Erk in BIE cells; 1 h after the end of CA4P exposure): returned to control levels | phospho-Erk levels (phospho-Erk in BIE cells; immediately after the end of CA4P exposure): elevated | decline in cell number, compared with paclitaxel ([1]; 10 nM, 100 nM or 10 μM, cell number at 48 h and 96 h, over a 96 hour exposure (FIG. 1, FIG. 2)): more effective than paclitaxel at inducing a decline in cell number | cell morphology by light microscopy ([1]; CA4P 10 μM, live primary bovine cells on the lens capsule, 48 and 96 h (FIG. 3)): show only epithelial sheets with the typical cobblestone appearance of the lens epithelium
